Measurements published in PubChem BioAssay AID2060612 (Molecular Pharmacology Branch, DTP, NCI, 2025).

System: 565232-114-T-J1-PDC complex spheroid viability
Experiment: Anticancer human tumor 565232-114-T-J1-PDC patient-derived bladder carcinoma cell line growth inhibition [CLK]
Conditions: for IC50: curve of first compound; for viability, T/C: stronger effect = lower value
Method in brief: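 Multi-cell-type spheroids combined patient-derived tumor cells with HUVEC endothelial cells and human mesenchymal stem cells. Paired agents were dosed in half-log steps down from about clinical Cmax, or from 10 microM where Cmax was unknown.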

[1] = second compound 0.0316 µM, first compound 0.0316 µM
[2] = second compound 0.0316 µM, first compound 0.1 µM
[3] = second compound 0.0316 µM, first compound 0.316 µM
[4] = second compound 0.0316 µM, first compound 1 µM
[5] = second compound 0.1 µM, first compound 0.0316 µM
[6] = second compound 0.1 µM, first compound 0.1 µM
[7] = second compound 0.1 µM, first compound 0.316 µM
[8] = second compound 0.1 µM, first compound 1 µM
[9] = second compound 0.316 µM, first compound 0.0316 µM
[10] = second compound 0.316 µM, first compound 0.1 µM
[11] = second compound 0.316 µM, first compound 0.316 µM
[12] = second compound 0.316 µM, first compound 1 µM
[13] = second compound 1 µM, first compound 0.0316 µM
[14] = second compound 1 µM, first compound 0.1 µM
[15] = second compound 1 µM, first compound 0.316 µM
[16] = second compound 1 µM, first compound 1 µM
[17] = second compound 3.16 µM, first compound 0.0316 µM
[18] = second compound 3.16 µM, first compound 0.1 µM
[19] = second compound 3.16 µM, first compound 0.316 µM
[20] = second compound 3.16 µM, first compound 1 µM
[21] = second compound 10 µM, first compound 0.0316 µM
[22] = second compound 10 µM, first compound 0.1 µM
[23] = second compound 10 µM, first compound 0.316 µM
[24] = second compound 10 µM, first compound 1 µM
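Note: spheroids exposed to compounds for 7 days before readout.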
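Throughout, for viability, T/C: 100% = DMSO vehicle wells with luminescence normalized to vehicle control.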

CCc1c2c(nc3ccc(O)cc13)-c1cc3c(c(=O)n1C2)COC(=O)[C@]3(O)CC + CNC(=O)c1ccc(Nc2nc(OC3CCCC3)c3c(-c4ccc5nc(C)oc5c4)c[nH]c3n2)c(OC)c1
IC50 (second compound 0.0316 µM): 8.14 nM
IC50 (second compound 0.1 µM): < 3.16 nM
IC50 (second compound 0.316 µM): < 3.16 nM
IC50 (second compound 1 µM): < 3.16 nM
IC50 (second compound 3.16 µM): < 3.16 nM
IC50 (second compound 10 µM): < 3.16 nM
viability, T/C (second compound 0.0316 µM, first compound 0.00316 µM): 103%
viability, T/C (second compound 0.0316 µM, first compound 0.01 µM): 37.1%
viability, T/C [1]: 16.6%
viability, T/C [2]: 5.26%
viability, T/C [3]: 3.13%
viability, T/C [4]: 1.53%
viability, T/C (second compound 0.1 µM, first compound 0.00316 µM): 33.4%
viability, T/C (second compound 0.1 µM, first compound 0.01 µM): 17.9%
viability, T/C [5]: 12.2%
viability, T/C [6]: 3.99%
viability, T/C [7]: 2.1%
viability, T/C [8]: 1.61%
viability, T/C (second compound 0.316 µM, first compound 0.00316 µM): 18.9%
viability, T/C (second compound 0.316 µM, first compound 0.01 µM): 15.3%
viability, T/C [9]: 8.99%
viability, T/C [10]: 3.91%
viability, T/C [11]: 1.28%
viability, T/C [12]: 0.35%
viability, T/C (second compound 1 µM, first compound 0.00316 µM): 14.7%
viability, T/C (second compound 1 µM, first compound 0.01 µM): 13.8%
viability, T/C [13]: 4.81%
viability, T/C [14]: 4.56%
viability, T/C [15]: 1.55%
viability, T/C [16]: 0.71%
viability, T/C (second compound 3.16 µM, first compound 0.00316 µM): 15.7%
viability, T/C (second compound 3.16 µM, first compound 0.01 µM): 9.15%
viability, T/C [17]: 5.68%
viability, T/C [18]: 2.4%
viability, T/C [19]: 1%
viability, T/C [20]: 0.27%
viability, T/C (second compound 10 µM, first compound 0.00316 µM): 17.3%
viability, T/C (second compound 10 µM, first compound 0.01 µM): 12.9%
viability, T/C [21]: 6.78%
viability, T/C [22]: 3.12%
viability, T/C [23]: 1.32%
viability, T/C [24]: 2.51%

C=CC(=O)Nc1cc(Nc2nccc(-c3cn(C)c4ccccc34)n2)c(OC)cc1N(C)CCN(C)C + CNC(=O)c1ccc(Nc2nc(OC3CCCC3)c3c(-c4ccc5nc(C)oc5c4)c[nH]c3n2)c(OC)c1
IC50 (second compound 0.0316 µM): > 300 nM
IC50 (second compound 0.1 µM): 105 nM
IC50 (second compound 0.316 µM): < 0.949 nM
IC50 (second compound 1 µM): < 0.949 nM
IC50 (second compound 3.16 µM): < 0.949 nM
IC50 (second compound 10 µM): < 0.949 nM
viability, T/C (second compound 0.0316 µM, first compound 0.000949 µM): 84.3%
viability, T/C (second compound 0.0316 µM, first compound 0.003 µM): 92.5%
viability, T/C (second compound 0.0316 µM, first compound 0.00949 µM): 75.5%
viability, T/C (second compound 0.0316 µM, first compound 0.03 µM): 86.7%
viability, T/C (second compound 0.0316 µM, first compound 0.0949 µM): 87.6%
viability, T/C (second compound 0.0316 µM, first compound 0.3 µM): 86.1%
viability, T/C (second compound 0.1 µM, first compound 0.000949 µM): 49.8%
viability, T/C (second compound 0.1 µM, first compound 0.003 µM): 53.3%
viability, T/C (second compound 0.1 µM, first compound 0.00949 µM): 51.1%
viability, T/C (second compound 0.1 µM, first compound 0.03 µM): 49.2%
viability, T/C (second compound 0.1 µM, first compound 0.0949 µM): 51.6%
viability, T/C (second compound 0.1 µM, first compound 0.3 µM): 40.5%
viability, T/C (second compound 0.316 µM, first compound 0.000949 µM): 28.5%
viability, T/C (second compound 0.316 µM, first compound 0.003 µM): 31.7%
viability, T/C (second compound 0.316 µM, first compound 0.00949 µM): 28.5%
viability, T/C (second compound 0.316 µM, first compound 0.03 µM): 31.1%
viability, T/C (second compound 0.316 µM, first compound 0.0949 µM): 35.7%
viability, T/C (second compound 0.316 µM, first compound 0.3 µM): 26.2%
viability, T/C (second compound 1 µM, first compound 0.000949 µM): 22.4%
viability, T/C (second compound 1 µM, first compound 0.003 µM): 27.3%
viability, T/C (second compound 1 µM, first compound 0.00949 µM): 21.9%
viability, T/C (second compound 1 µM, first compound 0.03 µM): 26.4%
viability, T/C (second compound 1 µM, first compound 0.0949 µM): 18.1%
viability, T/C (second compound 1 µM, first compound 0.3 µM): 22%
viability, T/C (second compound 3.16 µM, first compound 0.000949 µM): 18.5%
viability, T/C (second compound 3.16 µM, first compound 0.003 µM): 20.7%
viability, T/C (second compound 3.16 µM, first compound 0.00949 µM): 17.6%
viability, T/C (second compound 3.16 µM, first compound 0.03 µM): 21.4%
viability, T/C (second compound 3.16 µM, first compound 0.0949 µM): 15.2%
viability, T/C (second compound 3.16 µM, first compound 0.3 µM): 14.3%
viability, T/C (second compound 10 µM, first compound 0.000949 µM): 19.9%
viability, T/C (second compound 10 µM, first compound 0.003 µM): 18.8%
viability, T/C (second compound 10 µM, first compound 0.00949 µM): 16.1%
viability, T/C (second compound 10 µM, first compound 0.03 µM): 18.2%
viability, T/C (second compound 10 µM, first compound 0.0949 µM): 14%
viability, T/C (second compound 10 µM, first compound 0.3 µM): 11.7%

CC(CO)NC(=O)c1cc(-c2ccc(Cl)cc2)nn(-c2cnn(C)c2)c1=O (stereo unspecified) + CNC(=O)c1ccc(Nc2nc(OC3CCCC3)c3c(-c4ccc5nc(C)oc5c4)c[nH]c3n2)c(OC)c1
IC50 (second compound 0.0316 µM): > 10000 nM
IC50 (second compound 0.1 µM): 131 nM
IC50 (second compound 0.316 µM): < 31.6 nM
IC50 (second compound 1 µM): < 31.6 nM
IC50 (second compound 3.16 µM): < 31.6 nM
IC50 (second compound 10 µM): < 31.6 nM
viability, T/C [1]: 85.2%
viability, T/C [2]: 74.3%
viability, T/C [3]: 79.8%
viability, T/C [4]: 83%
viability, T/C (second compound 0.0316 µM, first compound 3.16 µM): 97.6%
viability, T/C (second compound 0.0316 µM, first compound 10 µM): 117%
viability, T/C [5]: 50.5%
viability, T/C [6]: 51.3%
viability, T/C [7]: 48.8%
viability, T/C [8]: 47.1%
viability, T/C (second compound 0.1 µM, first compound 3.16 µM): 51%
viability, T/C (second compound 0.1 µM, first compound 10 µM): 45.4%
viability, T/C [9]: 35%
viability, T/C [10]: 26.5%
viability, T/C [11]: 32.5%
viability, T/C [12]: 36.1%
viability, T/C (second compound 0.316 µM, first compound 3.16 µM): 37.7%
viability, T/C (second compound 0.316 µM, first compound 10 µM): 34%
viability, T/C [13]: 22.1%
viability, T/C [14]: 23.6%
viability, T/C [15]: 23.7%
viability, T/C [16]: 21.1%
viability, T/C (second compound 1 µM, first compound 3.16 µM): 23.5%
viability, T/C (second compound 1 µM, first compound 10 µM): 22.5%
viability, T/C [17]: 17.5%
viability, T/C [18]: 18.2%
viability, T/C [19]: 19.7%
viability, T/C [20]: 18.2%
viability, T/C (second compound 3.16 µM, first compound 3.16 µM): 22%
viability, T/C (second compound 3.16 µM, first compound 10 µM): 19%
viability, T/C [21]: 19.9%
viability, T/C [22]: 18.1%
viability, T/C [23]: 18.4%
viability, T/C [24]: 16.2%
viability, T/C (second compound 10 µM, first compound 3.16 µM): 18.4%
viability, T/C (second compound 10 µM, first compound 10 µM): 17.7%
